Assay results as given in patent publication US10031142B2, “In situ chemiluminescent substrates and assays” (Life Technologies Corporation, priority 2010, dated 2018).
Like-named read-outs stand apart in the source and are kept apart here.

Experiments:
alkaline phosphatase [1] = conditions: in the presence of Sapphire II enhancer
Excerpt: Benchmarking experiments compared the light emission (in RLUs) and signal to noise (S:N) of in situ ADP-Star with control dioxetanes CSPD®, ADP-Star®, and CDP-Star®.

alkaline phosphatase [2] = conditions: TBQ, 37° C., 25 minutes
Procedure: The following reagents were used for this: • 0.1M aminomethylpropanol buffer, pH 9.5 (AMP Buffer), • CDP-Star® (CDP*, Life Technologies): 6.2 mg/mL (12.5 mM) in AMP Buffer, • ADP-Star® (ADP*, Life Technologies): 1 mg/mL (2.2 mM) in 0.1M AMP Buffer, • ADP*-EE Oxidation mixture: 1 mg/mL (2.3 mM) in 0.1M AMP Buffer, • TBQ: 10× Sapphire II™ chemiluminescence enhancer (Life Technologies), and • Alkaline Phosphatase stock (AP): 8 ng/mL (from 17.4 mg/mL concentrate).
10 μL ADP* or ADP*-EE Oxidation mixture (0.22 or 0.23 mM, respectively), 10 μL TBQ, 80 μL AMP Buffer and 10 μL AP were combined and the luminescence from the mixture was measured continuously at 37° C. for 25 minutes. 1.6 μL CDP* (0.2 mM), 10 μL TBQ, 80 μL AMP Buffer and 10 μL AP were combined and the luminescence from the mixture was measured continuously at 37° C. for 25 minutes.

[3] = Thermal stability of aqueous solutions of reagents; format: physicochemical
Excerpt: The thermal stabilities of aqueous solutions AMPPD®, AMPPD enol ether phosphate (AMPPD-EE) and AMPPD-EE in the presence of Na2MoO4 were examined.

[4] = cited from earlier work
alkaline phosphatase [5] = tested on: alkaline phosphatase
Excerpt: Before developing assay conditions with Method B in situ dioxetane generation, we investigated whether the reagents from the oxidation system adversely affected alkaline phosphatase activity. […] Any quenching effects from a singlet oxygen generation/reaction system may be enzyme-specific, and would have to be evaluated for any enzyme/detection substrate pair.

Q: With COC1(c2cccc(OP(=O)(O)O)c2)OOC12C1CC3CC2CC(Cl)(C3)C1 (stereo not drawn) [CSPD®] as the molecule, how does the “time reaching glow (maximum light emission)” value (alkaline phosphatase [1]) read?
A: 30 min

Q: For COC(=C1C2CC3CC(C2)CC1C3)c1ccc(Cl)c(OP(=O)([O-])[O-])c1.[Na+].[Na+] [ADP-Star enol ether phosphate], which “light emission compared with CDP-Star dioxetane control” value (alkaline phosphatase [2]) is on record?
A: higher light emission

Q: With COC(=C1C2CC3CC(C2)CC1C3)c1cccc(OP(=O)([O-])[O-])c1.[Na+].[Na+] [AMPPD-EE] as the molecule, how does the “Stability/Storage Conditions (loss)” value ([3]; 1 month, 55° C.) read?
A: Minimal loss in 1 month, 55 °C

Q: What about the thermal decomposition ([3]; aqueous solution, 40° C. over 4+ months) of the same molecule?
A: virtually no thermal decomposition

Q: What about the thermal decomposition ([3]; aqueous solution, 55° C. over 5+ months) of the same molecule?
A: minimal thermal decomposition

Q: What about the thermal decomposition ([3]; in the presence of Na2MoO4 at 40° C.) of the same molecule?
A: no thermal decomposition

Q: Which “Stability/Storage Conditions” value ([4]; solid) does the source give for [Na+].[Na+].[O]=[Mo](=[O])([O-])[O-] [sodium molybdate] here?
A: “Stable under ordinary conditions of use &

Q: And the “effect on alkaline phosphatase activity” value (alkaline phosphatase [5]; AMPPD substrate, TBQ enhancer, 37° C., 30 minutes)?
A: significantly quenches alkaline phosphatase activity

Q: And the “light reduction (quenching of alkaline phosphatase activity)” value (alkaline phosphatase [5]; AMPPD substrate, various amounts of Na2MoO4 stock, 37° C.)?
A: up to 85%

Q: What about the “alkaline phosphatase activity on lowering concentration” value (alkaline phosphatase [5]; sodium molybdate <1 mM) of the same molecule?
A: restores most of the alkaline phosphatase activity

Q: What does the source list for OO [hydrogen peroxide]?
A: Stability/Storage Conditions ([4]; 35% soln, 1 yr, 25° C.): >99.3% in 1 yr, 25° C.;; Stability/Storage Conditions ([4]; 35% soln, 24 hr, 100° C.): ≥96.0% in 24 hr, 100 °C; effect on alkaline phosphatase activity (alkaline phosphatase [5]): does not affect alkaline phosphatase activity

Q: What does the source list for COC1(c2cccc(OP(=O)(O)O)c2)OOC12C1CC3CC(C1)CC2C3 (stereo not drawn) [AMPPD®, reference compound]?
A: thermal half-life ([3]; aqueous solution, 40° C.): ~40 days; thermal half-life ([3]; aqueous solution, 55° C.): ~10 days
